Legend:
Assay in all cases: KINOMEscan competition binding
Conditions in all cases: compound 10.0 µM
TLK1 (human) = TLK1 (human) (UniProt Q9UKI8)
NUAK1 (human) = NUAK1 (human) (UniProt O60285)
RPS6KA1 KD2 (human) = RPS6KA1 KD2 (human) (UniProt Q15418)
PDGFRA (human) = PDGFRA (human) (UniProt P16234)
FGFR3 (human) = FGFR3 (human) (UniProt P22607)
RPS6KA5 KD2 (human) = RPS6KA5 KD2 (human) (UniProt O75582)
EPHA2 (human) = EPHA2 (human) (UniProt P29317)
NUAK2 (human) = NUAK2 (human) (UniProt Q9H093)
IGF1R (human) = IGF1R (human) (UniProt P08069)
CDK9 (human) = CDK9 (human) (UniProt P50750)
CSNK1G2 (human) = CSNK1G2 (human) (UniProt P78368)
STK17B (human) = STK17B (human) (UniProt O94768)
MATK (human) = MATK (human) (UniProt P42679)
EPHA4 (human) = EPHA4 (human) (UniProt P54764)
CSF1R (human) = CSF1R (human) (UniProt P07333)
Chain of CSF1R (human) (P07333 whole entry, looked up): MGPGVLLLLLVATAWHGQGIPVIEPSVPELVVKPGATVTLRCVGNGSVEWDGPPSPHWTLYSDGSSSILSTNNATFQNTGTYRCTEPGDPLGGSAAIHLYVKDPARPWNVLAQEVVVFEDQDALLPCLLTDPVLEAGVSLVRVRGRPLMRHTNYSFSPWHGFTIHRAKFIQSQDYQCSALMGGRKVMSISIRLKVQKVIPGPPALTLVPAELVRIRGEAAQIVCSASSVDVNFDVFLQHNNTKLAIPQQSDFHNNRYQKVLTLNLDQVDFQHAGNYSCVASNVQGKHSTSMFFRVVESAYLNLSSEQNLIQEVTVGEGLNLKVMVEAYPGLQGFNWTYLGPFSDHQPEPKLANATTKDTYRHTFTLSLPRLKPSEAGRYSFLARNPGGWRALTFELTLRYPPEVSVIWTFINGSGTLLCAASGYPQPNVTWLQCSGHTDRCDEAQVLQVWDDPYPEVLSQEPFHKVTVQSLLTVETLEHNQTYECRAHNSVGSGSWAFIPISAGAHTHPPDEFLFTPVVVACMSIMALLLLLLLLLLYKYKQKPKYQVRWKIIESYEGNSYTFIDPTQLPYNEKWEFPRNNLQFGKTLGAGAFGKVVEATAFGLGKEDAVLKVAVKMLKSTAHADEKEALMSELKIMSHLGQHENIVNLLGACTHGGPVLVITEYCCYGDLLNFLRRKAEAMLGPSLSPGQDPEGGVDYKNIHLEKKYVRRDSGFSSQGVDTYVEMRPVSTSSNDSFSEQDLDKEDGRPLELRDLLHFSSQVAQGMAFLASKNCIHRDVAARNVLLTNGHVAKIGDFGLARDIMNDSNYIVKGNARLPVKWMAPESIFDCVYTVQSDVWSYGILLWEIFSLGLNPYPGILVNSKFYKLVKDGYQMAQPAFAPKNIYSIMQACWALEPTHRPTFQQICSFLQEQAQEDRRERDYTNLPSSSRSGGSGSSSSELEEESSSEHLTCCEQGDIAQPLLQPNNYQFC

MAP3K9 (human) = MAP3K9 (human) (UniProt P80192)
Chain of MAP3K9 (human) (P80192 whole entry, looked up): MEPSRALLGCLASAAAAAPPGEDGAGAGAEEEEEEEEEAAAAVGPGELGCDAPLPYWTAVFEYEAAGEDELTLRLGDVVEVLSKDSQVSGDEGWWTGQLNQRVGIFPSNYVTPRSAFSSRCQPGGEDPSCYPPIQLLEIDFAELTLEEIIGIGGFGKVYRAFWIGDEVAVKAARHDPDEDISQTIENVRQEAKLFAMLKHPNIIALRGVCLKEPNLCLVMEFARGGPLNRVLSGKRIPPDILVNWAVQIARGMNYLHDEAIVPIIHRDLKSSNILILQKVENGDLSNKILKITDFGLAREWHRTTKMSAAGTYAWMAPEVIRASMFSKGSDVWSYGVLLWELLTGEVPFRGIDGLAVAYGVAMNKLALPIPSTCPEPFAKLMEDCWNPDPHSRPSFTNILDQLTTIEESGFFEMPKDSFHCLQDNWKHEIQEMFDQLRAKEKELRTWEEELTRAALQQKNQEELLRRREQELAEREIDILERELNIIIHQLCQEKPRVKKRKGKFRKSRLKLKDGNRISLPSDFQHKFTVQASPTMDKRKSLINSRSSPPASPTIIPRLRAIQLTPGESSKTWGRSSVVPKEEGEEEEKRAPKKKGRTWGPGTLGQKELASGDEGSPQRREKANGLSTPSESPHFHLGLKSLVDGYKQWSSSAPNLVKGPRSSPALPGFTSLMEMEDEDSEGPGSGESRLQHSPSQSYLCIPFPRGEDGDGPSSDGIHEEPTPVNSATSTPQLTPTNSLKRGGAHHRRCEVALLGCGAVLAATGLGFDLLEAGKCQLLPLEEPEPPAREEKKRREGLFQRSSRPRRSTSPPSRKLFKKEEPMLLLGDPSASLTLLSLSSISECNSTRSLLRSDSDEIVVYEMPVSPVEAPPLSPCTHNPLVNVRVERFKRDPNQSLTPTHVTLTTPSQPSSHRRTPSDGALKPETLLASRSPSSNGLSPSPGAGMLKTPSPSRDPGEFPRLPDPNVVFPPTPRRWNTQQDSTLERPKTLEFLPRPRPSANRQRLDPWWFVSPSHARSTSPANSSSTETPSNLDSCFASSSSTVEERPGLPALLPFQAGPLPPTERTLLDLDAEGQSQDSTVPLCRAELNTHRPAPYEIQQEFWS

PAK7 (human) = PAK7 (human) (UniProt Q9P286)
SRC (human) = SRC (human) (UniProt P12931)
HIPK1 (human) = HIPK1 (human) (UniProt Q86Z02)
CDK14 (human) = CDK14 (human) (UniProt O94921)
STK38L (human) = STK38L (human) (UniProt Q9Y2H1)
Chain of STK38L (human) (Q9Y2H1 whole entry, looked up): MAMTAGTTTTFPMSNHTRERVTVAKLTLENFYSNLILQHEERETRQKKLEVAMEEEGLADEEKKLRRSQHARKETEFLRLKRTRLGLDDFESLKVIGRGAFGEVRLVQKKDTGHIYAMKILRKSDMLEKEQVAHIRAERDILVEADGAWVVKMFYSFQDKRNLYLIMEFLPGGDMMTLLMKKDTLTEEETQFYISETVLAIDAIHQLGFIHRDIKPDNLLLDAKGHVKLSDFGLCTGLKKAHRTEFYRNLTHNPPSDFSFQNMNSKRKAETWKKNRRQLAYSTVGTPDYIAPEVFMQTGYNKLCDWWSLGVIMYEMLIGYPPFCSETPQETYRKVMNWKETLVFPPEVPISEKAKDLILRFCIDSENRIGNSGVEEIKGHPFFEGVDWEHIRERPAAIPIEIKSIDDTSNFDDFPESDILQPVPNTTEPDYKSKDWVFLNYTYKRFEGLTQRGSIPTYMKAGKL

TNNI3K (human) = TNNI3K (human) (UniProt Q59H18)
WEE2 (human) = WEE2 (human) (UniProt P0C1S8)
Chain of WEE2 (human) (P0C1S8 whole entry, looked up): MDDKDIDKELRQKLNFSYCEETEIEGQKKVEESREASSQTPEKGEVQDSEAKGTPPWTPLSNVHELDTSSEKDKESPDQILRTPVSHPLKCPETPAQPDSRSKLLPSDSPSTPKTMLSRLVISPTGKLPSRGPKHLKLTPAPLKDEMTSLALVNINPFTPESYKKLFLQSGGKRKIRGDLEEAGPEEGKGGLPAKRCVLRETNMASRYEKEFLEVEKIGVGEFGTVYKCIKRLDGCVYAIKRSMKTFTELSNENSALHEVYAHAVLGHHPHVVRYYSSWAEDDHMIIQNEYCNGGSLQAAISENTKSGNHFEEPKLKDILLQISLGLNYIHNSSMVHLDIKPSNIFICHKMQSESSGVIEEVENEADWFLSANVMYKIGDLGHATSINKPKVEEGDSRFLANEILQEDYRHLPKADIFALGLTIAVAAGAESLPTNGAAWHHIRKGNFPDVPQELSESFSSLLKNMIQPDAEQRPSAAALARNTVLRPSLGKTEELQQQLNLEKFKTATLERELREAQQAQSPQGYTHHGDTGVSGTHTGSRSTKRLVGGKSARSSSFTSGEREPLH

STK10 (human) = STK10 (human) (UniProt O94804)
RPS6KA5 KD1 (human) = RPS6KA5 KD1 (human) (UniProt O75582)
NEK11 (human) = NEK11 (human) (UniProt Q8NG66)
SIK3 (human) = SIK3 (human) (UniProt Q9Y2K2)
PRKG2 (human) = PRKG2 (human) (UniProt Q13237)
STK17A (human) = STK17A (human) (UniProt Q9UEE5)
Chain of STK17A (human) (Q9UEE5 whole entry, looked up): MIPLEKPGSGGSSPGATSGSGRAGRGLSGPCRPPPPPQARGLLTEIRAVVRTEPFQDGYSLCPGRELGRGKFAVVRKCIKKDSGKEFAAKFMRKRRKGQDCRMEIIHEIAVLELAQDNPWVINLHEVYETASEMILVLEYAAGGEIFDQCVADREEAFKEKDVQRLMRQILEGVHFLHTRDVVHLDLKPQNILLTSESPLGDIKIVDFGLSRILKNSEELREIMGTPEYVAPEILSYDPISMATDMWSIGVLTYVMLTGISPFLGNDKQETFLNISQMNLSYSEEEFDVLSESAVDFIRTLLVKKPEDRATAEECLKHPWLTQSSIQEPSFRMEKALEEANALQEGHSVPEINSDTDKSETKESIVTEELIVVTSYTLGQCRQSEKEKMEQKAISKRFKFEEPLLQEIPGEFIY

MAP3K13 (human) = MAP3K13 (human) (UniProt O43283)
BMP2K (human) = BMP2K (human) (UniProt Q9NSY1)
TLK2 (human) = TLK2 (human) (UniProt Q86UE8)
ICK (human) = ICK (human) (UniProt Q9UPZ9)
Chain of ICK (human) (Q9UPZ9 whole entry, looked up): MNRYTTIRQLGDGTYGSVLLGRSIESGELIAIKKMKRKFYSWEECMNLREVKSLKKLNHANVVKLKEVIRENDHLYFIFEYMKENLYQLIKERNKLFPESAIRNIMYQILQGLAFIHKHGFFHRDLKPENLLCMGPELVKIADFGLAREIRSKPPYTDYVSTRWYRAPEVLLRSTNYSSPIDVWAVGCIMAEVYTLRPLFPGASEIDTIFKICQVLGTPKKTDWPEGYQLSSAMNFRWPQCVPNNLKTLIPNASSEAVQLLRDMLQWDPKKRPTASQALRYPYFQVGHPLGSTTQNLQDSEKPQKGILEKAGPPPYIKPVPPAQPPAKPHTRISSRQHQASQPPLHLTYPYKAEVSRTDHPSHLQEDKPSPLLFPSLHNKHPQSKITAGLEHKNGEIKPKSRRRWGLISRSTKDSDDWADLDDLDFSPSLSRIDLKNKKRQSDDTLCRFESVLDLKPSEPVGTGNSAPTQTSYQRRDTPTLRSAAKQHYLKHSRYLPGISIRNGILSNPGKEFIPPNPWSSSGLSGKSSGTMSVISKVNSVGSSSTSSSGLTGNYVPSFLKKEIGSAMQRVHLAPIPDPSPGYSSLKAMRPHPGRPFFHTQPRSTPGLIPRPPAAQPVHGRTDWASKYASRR

CDK3 (human) = CDK3 (human) (UniProt Q00526)
Chain of CDK3 (human) (Q00526 whole entry, looked up): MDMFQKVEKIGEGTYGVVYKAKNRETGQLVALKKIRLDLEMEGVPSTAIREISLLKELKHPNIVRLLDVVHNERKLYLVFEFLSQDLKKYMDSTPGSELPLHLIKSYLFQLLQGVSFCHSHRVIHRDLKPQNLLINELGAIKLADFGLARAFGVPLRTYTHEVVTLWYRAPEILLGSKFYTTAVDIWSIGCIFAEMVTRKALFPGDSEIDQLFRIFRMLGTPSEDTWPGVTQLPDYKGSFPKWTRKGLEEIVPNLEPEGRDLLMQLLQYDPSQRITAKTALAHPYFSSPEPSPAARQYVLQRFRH

TGFBR1 (human) = TGFBR1 (human) (UniProt P36897)
ITK (human) = ITK (human) (UniProt Q08881)
DCLK3 (human) = DCLK3 (human) (UniProt Q9C098)
EIF2AK2 (human) = EIF2AK2 (human) (UniProt P19525)
Chain of EIF2AK2 (human) (P19525 whole entry, looked up): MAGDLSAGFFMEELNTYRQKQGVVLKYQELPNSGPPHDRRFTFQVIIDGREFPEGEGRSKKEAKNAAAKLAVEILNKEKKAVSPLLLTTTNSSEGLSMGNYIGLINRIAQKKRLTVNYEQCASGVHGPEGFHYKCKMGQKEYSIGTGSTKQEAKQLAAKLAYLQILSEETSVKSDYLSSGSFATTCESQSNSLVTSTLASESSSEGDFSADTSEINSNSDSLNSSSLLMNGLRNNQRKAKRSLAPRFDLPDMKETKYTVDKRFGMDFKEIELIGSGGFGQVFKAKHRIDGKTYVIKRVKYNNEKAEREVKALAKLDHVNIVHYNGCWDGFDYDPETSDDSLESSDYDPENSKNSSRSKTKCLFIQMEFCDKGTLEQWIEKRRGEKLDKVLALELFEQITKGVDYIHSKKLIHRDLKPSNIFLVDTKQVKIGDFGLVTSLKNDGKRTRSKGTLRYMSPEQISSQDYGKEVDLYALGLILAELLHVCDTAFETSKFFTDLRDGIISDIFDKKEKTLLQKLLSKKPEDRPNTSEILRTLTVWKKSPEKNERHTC

MARK1 (human) = MARK1 (human) (UniProt Q9P0L2)
RPS6KB1 (human) = RPS6KB1 (human) (UniProt P23443)
[1] = tested on: FLT3 (human), P36888 [R834Q]

## CCC(=O)N1CCN(c2ccc(-n3c(=O)ccc4cnc5ccc(-c6cnc7ccccc7c6)cc5c43)cc2C(F)(F)F)CC1
TLK1 (human)
  kinase still bound, per cent of control: 100%
NUAK1 (human)
  kinase still bound, per cent of control: 100%
RPS6KA1 KD2 (human)
  kinase still bound, per cent of control: 100%
PDGFRA (human)
  kinase still bound, per cent of control: 63%
FGFR3 (human)
  kinase still bound, per cent of control: 42%
RPS6KA5 KD2 (human)
  kinase still bound, per cent of control: 100%
EPHA2 (human)
  kinase still bound, per cent of control: 59%
NUAK2 (human)
  kinase still bound, per cent of control: 100%
IGF1R (human)
  per cent of control: 94%
CDK9 (human)
  per cent of control: 94%
CSNK1G2 (human)
  kinase still bound, per cent of control: 100%
STK17B (human)
  kinase still bound, per cent of control: 67%
MATK (human)
  kinase still bound, per cent of control: 97%
EPHA4 (human)
  kinase still bound, per cent of control: 90%
CSF1R (human)
  kinase still bound, per cent of control: 24%
MAP3K9 (human)
  kinase still bound, per cent of control: 84%
PAK7 (human)
  kinase still bound, per cent of control: 87%
SRC (human)
  kinase still bound, per cent of control: 95%
HIPK1 (human)
  kinase still bound, per cent of control: 63%
CDK14 (human)
  per cent of control: 99%
STK38L (human)
  kinase still bound, per cent of control: 94%
TNNI3K (human)
  kinase still bound, per cent of control: 66%
WEE2 (human)
  kinase still bound, per cent of control: 100%
STK10 (human)
  kinase still bound, per cent of control: 79%
RPS6KA5 KD1 (human)
  kinase still bound, per cent of control: 100%
NEK11 (human)
  kinase still bound, per cent of control: 65%
SIK3 (human)
  kinase still bound, per cent of control: 89%
PRKG2 (human)
  kinase still bound, per cent of control: 78%
STK17A (human)
  kinase still bound, per cent of control: 93%
MAP3K13 (human)
  kinase still bound, per cent of control: 100%
BMP2K (human)
  kinase still bound, per cent of control: 100%
TLK2 (human)
  kinase still bound, per cent of control: 100%
ICK (human)
  kinase still bound, per cent of control: 100%
CDK3 (human)
  per cent of control: 100%
TGFBR1 (human)
  kinase still bound, per cent of control: 70%
ITK (human)
  kinase still bound, per cent of control: 100%
DCLK3 (human)
  kinase still bound, per cent of control: 97%
EIF2AK2 (human)
  kinase still bound, per cent of control: 88%
MARK1 (human)
  kinase still bound, per cent of control: 100%

## CC(C)n1nc(-c2cc3cc(O)ccc3[nH]2)c2c(N)ncnc21
TLK1 (human)
  kinase still bound, per cent of control: 75%
NUAK1 (human)
  kinase still bound, per cent of control: 86%
RPS6KA1 KD2 (human)
  kinase still bound, per cent of control: 46%
PDGFRA (human)
  kinase still bound, per cent of control: 2.2%
FGFR3 (human)
  kinase still bound, per cent of control: 9.2%
RPS6KA5 KD2 (human)
  kinase still bound, per cent of control: 22%
EPHA2 (human)
  kinase still bound, per cent of control: 9.4%
NUAK2 (human)
  kinase still bound, per cent of control: 9.2%
IGF1R (human)
  per cent of control: 100%
CDK9 (human)
  per cent of control: 96%
STK17B (human)
  kinase still bound, per cent of control: 40%
MATK (human)
  kinase still bound, per cent of control: 60%
EPHA4 (human)
  kinase still bound, per cent of control: 36%
CSF1R (human)
  kinase still bound, per cent of control: 33%
MAP3K9 (human)
  kinase still bound, per cent of control: 32%
PAK7 (human)
  kinase still bound, per cent of control: 8.6%
HIPK1 (human)
  kinase still bound, per cent of control: 1.9%
CDK14 (human)
  per cent of control: 100%
STK38L (human)
  kinase still bound, per cent of control: 63%
TNNI3K (human)
  kinase still bound, per cent of control: 14%
WEE2 (human)
  kinase still bound, per cent of control: 100%
STK10 (human)
  kinase still bound, per cent of control: 0.5%
RPS6KA5 KD1 (human)
  kinase still bound, per cent of control: 100%
NEK11 (human)
  kinase still bound, per cent of control: 74%
RPS6KB1 (human)
  kinase still bound, per cent of control: 57%
SIK3 (human)
  kinase still bound, per cent of control: 20%
STK17A (human)
  kinase still bound, per cent of control: 81%
MAP3K13 (human)
  kinase still bound, per cent of control: 100%
BMP2K (human)
  kinase still bound, per cent of control: 33%
TLK2 (human)
  kinase still bound, per cent of control: 79%
ICK (human)
  kinase still bound, per cent of control: 58%
CDK3 (human)
  per cent of control: 100%
TGFBR1 (human)
  kinase still bound, per cent of control: 1.1%
ITK (human)
  kinase still bound, per cent of control: 100%
DCLK3 (human)
  kinase still bound, per cent of control: 10%
EIF2AK2 (human)
  kinase still bound, per cent of control: 48%
MARK1 (human)
  kinase still bound, per cent of control: 81%
[1]
  kinase still bound, per cent of control: 16%

## COc1ccc(-c2ccc3c(N4CCOCC4)nc(N4C[C@@H](C)O[C@@H](C)C4)nc3n2)cc1CO
TLK1 (human)
  kinase still bound, per cent of control: 94%
NUAK1 (human)
  kinase still bound, per cent of control: 76%
RPS6KA1 KD2 (human)
  kinase still bound, per cent of control: 100%
PDGFRA (human)
  kinase still bound, per cent of control: 94%
FGFR3 (human)
  kinase still bound, per cent of control: 100%
RPS6KA5 KD2 (human)
  kinase still bound, per cent of control: 100%
EPHA2 (human)
  kinase still bound, per cent of control: 100%
NUAK2 (human)
  kinase still bound, per cent of control: 100%
IGF1R (human)
  per cent of control: 100%
CDK9 (human)
  per cent of control: 98%
CSNK1G2 (human)
  kinase still bound, per cent of control: 100%
STK17B (human)
  kinase still bound, per cent of control: 100%
MATK (human)
  kinase still bound, per cent of control: 78%
EPHA4 (human)
  kinase still bound, per cent of control: 100%
CSF1R (human)
  kinase still bound, per cent of control: 90%
MAP3K9 (human)
  kinase still bound, per cent of control: 88%
PAK7 (human)
  kinase still bound, per cent of control: 76%
SRC (human)
  kinase still bound, per cent of control: 100%
HIPK1 (human)
  kinase still bound, per cent of control: 97%
CDK14 (human)
  per cent of control: 100%
STK38L (human)
  kinase still bound, per cent of control: 95%
TNNI3K (human)
  kinase still bound, per cent of control: 100%
WEE2 (human)
  kinase still bound, per cent of control: 100%
STK10 (human)
  kinase still bound, per cent of control: 92%
RPS6KA5 KD1 (human)
  kinase still bound, per cent of control: 100%
NEK11 (human)
  kinase still bound, per cent of control: 72%
RPS6KB1 (human)
  kinase still bound, per cent of control: 100%
SIK3 (human)
  kinase still bound, per cent of control: 97%
PRKG2 (human)
  kinase still bound, per cent of control: 100%
STK17A (human)
  kinase still bound, per cent of control: 96%
MAP3K13 (human)
  kinase still bound, per cent of control: 100%
BMP2K (human)
  kinase still bound, per cent of control: 98%
TLK2 (human)
  kinase still bound, per cent of control: 87%
ICK (human)
  kinase still bound, per cent of control: 100%
CDK3 (human)
  per cent of control: 100%
TGFBR1 (human)
  kinase still bound, per cent of control: 100%
ITK (human)
  kinase still bound, per cent of control: 88%
DCLK3 (human)
  kinase still bound, per cent of control: 100%
EIF2AK2 (human)
  kinase still bound, per cent of control: 100%
MARK1 (human)
  kinase still bound, per cent of control: 100%
[1]
  kinase still bound, per cent of control: 100%

— the kinase profiling compilation of Christmann-Franck et al. (2016)
